Reference: publication PMC3759264 (The Journal of organic chemistry, 2013)

Experiments:
M. tuberculosis H37Rv = M. tuberculosis H37Rv MIC assay; assay type: cell-based, Mycobacterium tuberculosis; settings: Mtb H37Rv; for MIC50 –Fe: iron-deficient; for MIC50 +Fe: iron-replete
MbtA [1] = molecular target: T1, MbtA (Mycobacterium tuberculosis, UniProt P71716); assay type: biochemical; settings: read-out: Ki^app MbtA; 250 µM salicylic acid, 10 mM ATP, 1 mM PPi, 7 nM MbtA
MbtA [2] = molecular target: T1, MbtA; assay type: binding

T1 sequence (P71716 whole entry): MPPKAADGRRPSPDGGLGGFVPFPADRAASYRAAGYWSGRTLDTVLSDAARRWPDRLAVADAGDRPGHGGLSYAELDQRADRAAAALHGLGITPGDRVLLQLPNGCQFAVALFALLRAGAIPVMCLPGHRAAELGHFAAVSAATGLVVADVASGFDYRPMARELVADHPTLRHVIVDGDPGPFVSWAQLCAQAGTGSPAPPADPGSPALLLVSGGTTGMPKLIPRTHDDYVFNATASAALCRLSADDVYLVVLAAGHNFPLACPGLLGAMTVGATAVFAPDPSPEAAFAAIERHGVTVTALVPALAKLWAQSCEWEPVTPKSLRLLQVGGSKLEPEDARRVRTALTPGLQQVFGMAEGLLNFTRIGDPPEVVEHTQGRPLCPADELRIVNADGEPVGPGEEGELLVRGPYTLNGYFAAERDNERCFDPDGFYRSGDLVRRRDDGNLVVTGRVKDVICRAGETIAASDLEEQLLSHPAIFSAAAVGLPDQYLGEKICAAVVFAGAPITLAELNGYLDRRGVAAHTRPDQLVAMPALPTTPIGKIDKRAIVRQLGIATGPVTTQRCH

Compound | MIC50 –Fe (M. tuberculosis H37Rv) | MIC50 +Fe (M. tuberculosis H37Rv) | Ki (MbtA [1]) | fold increase in potency (KD, MbtA) relative to chromone 1 (MbtA [2]) | fold loss of potency (KD, MbtA) relative to chromone 1 (MbtA [2]; FP assay)
Nc1ncnc2c1ncn2[C@@H]1O[C@H](CNS(=O)(=O)c2coc3ccccc3c2=O)[C@@H](O)[C@H]1O [Compound 1, 5′-Amino-5′-N-[(chromon-3-yl)sulfonyl]-5′-deoxy-adenosine] | >50 µM | >50 µM | – | – | –
Nc1ncnc2c1ncn2[C@@H]1O[C@H](CNS(=O)(=O)c2c[nH]c3ccccc3c2=O)[C@@H](O)[C@H]1O [Compound 2, 5′-Amino-5′-deoxy-5′-N-[(quinol-4-on-3-yl)sulfonyl]adenosine] | >50 µM | >50 µM | 0.12 ± 0.02 µM | – | –
Nc1ncnc2c1ncn2[C@@H]1O[C@H](CNS(=O)(=O)c2noc3ccccc3c2=O)[C@@H](O)[C@H]1O [Compound 3, 5′-Amino-5′-deoxy-5′-N-[(4-oxo-4H-benzo[e][1,2]oxazin-3-yl)sulfonyl]adenosine] | >50 µM | >50 µM | – | ~10 fold | –
Nc1ncnc2c1ncn2[C@@H]1O[C@H](CNS(=O)(=O)c2coc3c(O)cccc3c2=O)[C@@H](O)[C@H]1O [Compound 4, 5′-Amino-5′-deoxy-5′-N-[(8-hydroxychromon-3-yl)sulfonyl]adenosine] | >50 µM | >50 µM | – | – | 80 fold
